# According to paper PMC12430169, “Notoginsenoside R1, a Metabolite from Panax notoginseng, Prevents Paclitaxel-Induced Peripheral Neuropathic Pain in Mice” (Molecules, 2025):
# Target: T1, human recombinant monoacylglycerol lipase (MAGL) (Homo sapiens, UniProt Q99685)
# T1 construct: gene MGLL
# T1 sequence (Q99685 1-303): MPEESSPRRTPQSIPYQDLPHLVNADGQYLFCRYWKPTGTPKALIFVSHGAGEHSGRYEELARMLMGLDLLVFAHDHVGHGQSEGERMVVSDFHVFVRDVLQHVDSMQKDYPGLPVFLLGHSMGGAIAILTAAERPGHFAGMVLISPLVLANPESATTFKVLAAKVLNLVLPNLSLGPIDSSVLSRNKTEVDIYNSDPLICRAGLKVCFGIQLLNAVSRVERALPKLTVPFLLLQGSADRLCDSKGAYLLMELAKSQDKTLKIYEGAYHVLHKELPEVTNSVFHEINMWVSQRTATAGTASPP
# Test: colorimetric MAGL inhibitor screening kit (Cayman), 4-nitrophenyl acetate hydrolysis at […] nm; […] inhibition at […] at […] min, […] at […] min; inhibition falls with concentration
# Format: biochemical
smiles,measurement,value
"CC(C)=CCC[C@](C)(O[C@@H]1O[C@H](CO)[C@@H](O)[C@H](O)[C@H]1O)[C@H]1CC[C@]2(C)[C@@H]1[C@H](O)C[C@@H]1[C@@]3(C)CC[C@H](O)C(C)(C)[C@@H]3[C@@H](O[C@@H]3O[C@H](CO)[C@@H](O)[C@H](O)[C@H]3O[C@@H]3OC[C@@H](O)[C@H](O)[C@H]3O)C[C@]12C [NGR1, Notoginsenoside R1]",inhibition at 1 µM,41%
